What all share (format): biochemical, human
Test [1] has as its system PCT. Nature of the test: Signal-to-noise ratio and linear range for PCT detection, purified fusion proteins (Example 3). The note with it: PCT 3.3 (pg/ml); normalized against the background value. Further details: key: luminescence normalized against the background value.
Test [2] has as its system PCT. Nature of the test: Luciferase dual-antibody complementary activation assay for PCT detection, clone supernatants, retest with CTZ-h (Example 1). The note with it: for Signal-to-noise ratio: RLU antigen+/RLU antigen-, MBP-PCT 3.3 ng/ml, CTZ-h; for PCT+: luminescence signal value with MBP-PCT 3.3 ng/ml, large subunit-rSCFV5 50 nM, supernatant; for PCT+ / PCT-: retest CTZ-h 25 µM, read after 60 s; for PCT-: luminescence signal value, background control PBSAD without PCT. The protocol: In order to improve the signal-to-noise ratio and complementary activity of the luciferase dual-antibody complementary activation assay, a series of complementary luciferase small subunits were prepared in this example. Large subunit-rSCFV5 fusion protein (SEQ ID NO: 87) was kept unchanged, and the small subunit sequence of the rSCFV18-small subunit P114 fusion protein (SEQ ID NO: 88) was modified by semi-randomization to prepare rSCFV18-small subunit mutant fusion proteins. Based on the sequence of small subunit P114, and with reference to the 3D structure of complementary luciferase, computer-aided sequence design was employed to generate a library with a theoretical diversity of 2.49*10^6. Primers were designed for PCR amplification using the plasmid pComb3x of rSCFV18-small subunit P114 fusion protein as a template. Subsequently, an expression vector library was constructed by means of restriction digestion and ligation (SfiI, NheI), and a semi-random amino acid mutation library was introduced into the small subunit position and transformed into HB2151 competent cells, yielding a library capacity of 7.6*10^9. The 100 plates were spread, and 9,500 single clones were picked and inoculated into 600 µL of 2YTA medium, followed by incubation at 37°C with shaking at 250 rpm for 2 h. When the bacterial density reached approximately OD600 = 0.6~1.0, IPTG was then added to a final concentration of 1 mM, and the culture was further incubated at 30°C with shaking at 250 rpm for 20 h. The next day, the bacteria were collected by centrifugation at 4°C, 4,500g for 10min. The supernatant was discarded, and the precipitate was resuspended with 200µl of PBS containing polymyxin B at a final concentration of 20,000 u/ml. The suspension was incubated at room temperature with shaking at 100rpm for 1h, and then centrifuged at 4500g for 10min, and the supernatant was used for the test.
Test Methods: • (1) The concentration of large subunit-rSCFV5 fusion protein was diluted to 50 nM, and 15 µl was added per well; • (2) MBP-PCT fusion protein was diluted to 3.3 ng/ml with PBSAD, and 15 µl was added per well. The background control was PBSAD, and 10 µl was added per well; • (3) HB2151 strain containing expression plasmids with different small subunit were induced by 1 mM of IPTG at 30°C overnight, then treated with polymyxin B for 1.5 h, and centrifuged to collect the supernatant, and 2.5 µl supernatant was added per well; • (4) The above three components were slightly mixed, incubated at 37°C for 7 min, and Obuffer 6.37-3 containing Furimazine at a concentration of 25 µM was added, and after 80 s, the luminescence signal value was detected using a bioluminescence detector; and • (5) Clones with RLU higher than 10,000 and a signal-to-noise ratio (RLU antigen+/RLU antigen-) higher than that of the rSCFV18-small subunit P114 fusion protein were selected for retesting. The substrate was replaced with CTZ-h for retesting. Obuffer 6.37-3 containing CTZ-h at a concentration of 25 µM was added, and after 60 s, the luminescence signal value was detected using a bioluminescence detector.

Test [3] deals with PCT. Briefly: Complementation of purified rSCFV18-small subunit mutant fusion protein with large subunit-rSCFV5 fusion protein, PCT gradient (Example 2). The note with it: for luminescence value: CTZ-h 25 µM, 20 s; for Signal-to-noise ratio at 1000 pg/ml: PCT 1000 pg/ml versus 0. The protocol: Protein expression and purification of small subunit mutants: The strains containing plasmids of different small subunits inTable 2, prepared in Example 1, were inoculated into 200ml of 2YTA medium and cultured at 37°C with shaking at 250 rpm for about 3h. When the OD600 reached 1.0, IPTG was added to a final concentration of 1mM, and the culture was further incubated at 30°C with shaking at 250rpm for 20h. The culture were centrifuged at 5,000g for 10min, and the precipitate was resuspended with 10ml of PBS, added with polymyxin B to 20,000u/ml. The suspension was inverted and mixed at room temperature for 1h, and centrifuged at 10,000g to collect the supernatant. The rSCFV18-small subunit mutant fusion protein was purified according to the standard procedure for his-tag protein purification using Ni-NTA resin.
In the same tube, the large subunit-rSCFV5 fusion protein was diluted with PBSA to 50 nM; rSCFV18-small subunit mutant fusion protein was diluted to 90 nM, mixed well, and then 22 µl was added per well; the MBP-PCT fusion protein was diluted in 3-fold gradient with PBSAD (in pg/ml), with 8 gradients in total, 10µl was added per well, and the background control was PBSAD and 10 µl was added per well; the plate was mixed with slight shaking and incubated at 37°C for 6 min, 50 µl of Obuffer 6.37-3 containing 25 µM of CTZ-h then was added, and after 20 s, the luminescence value was detected.

Test [4] has as its system PCT. Nature of the test: Signal-to-noise ratio and linear range for PCT detection, purified fusion proteins (Example 3). The note with it: for Signal-to-noise ratio at 1000 pg/ml: large subunit 100 nM, small subunit fusion 180 nM, CTZ-h 25 µM, 140 s; for signal-to-noise ratios in luciferase dual-antibody complementary activation for PCT detection: statement in words on Table 3 and Figure 2. More on the design: key to luminescence value: luminescence normalized against the background value. As for the experimental part: Test Methods: • (1) MBP-PCT protein was diluted with PBSAD in 10-fold gradient starting from 100 ng/ml, with 8 gradients in total, and 10 µl was added per well; • (2) The large subunit-SCFV5 fusion protein was diluted with PBSA to 100 nM, and 10 µl was added per well; • (3) Different rSCFV18-small subunit mutant fusion proteins were diluted with PBSA to 180 nM, and 10 µl of each was added per well; • (4) The plate was mixed slightly and incubated at 37°C for 10 min; and • (5) 50 µl of Obuffer 6.37-3 containing 25 µM of CTZ-h was added, and after 140 s, the luminescence value was detected. The results are shown after normalization against the background value.

Setting [5] is: PCT 0 pg/ml (background control PBSAD).
Setting [6] is: PCT 1000 pg/ml, large subunit 50 nM, small subunit fusion 90 nM.
Where [7] appears, read: PCT 100 (pg/ml), normalized against the background value.
Setting [8] is: PCT 1000 (pg/ml), normalized against the background value.
[9] abbreviates: PCT 10000 (pg/ml), normalized against the background value.
Setting [10] is: PCT 100000 (pg/ml), normalized against the background value.

Turning to VEGYRLFDRKL [RB135], the luminescence value with PCT [1] stood at 5698; in the test on PCT [3] (setting [5]) it was 380; with PCT [3] (PCT 1.37 pg/ml), 367; with PCT [3] (PCT 4.12 pg/ml) it was 422; with PCT [3] (PCT 12.35 pg/ml) it was 575; in the test with PCT [3] (PCT 37.04 pg/ml), 943. In addition, the luminescence value in the test with PCT [3] (PCT 111.1 pg/ml) came to 2137; with PCT [3] (PCT 333.3 pg/ml) it was 5480; with PCT [3] (setting [6]), 15181; in the test on PCT [4] (PCT 0, background, normalized), 5000; with PCT [4] (setting [7]), 11916; with PCT [4] (setting [8]), 67860. Further, the luminescence value with PCT [4] (setting [9]) came to 536667; with PCT [4] (setting [10]) it was 1936894. The Signal-to-noise ratio in the test with PCT [2] worked out at 43.7. For the same sequence, the “PCT+” value in the test on PCT [2] came out at 35245. Also, the PCT- in the test on PCT [2] was 788. In addition, the “Signal-to-noise ratio at 1000 pg/ml” value with PCT [3] is listed as 40.0; with PCT [4], 13.6.
Regarding VEGWRLHEKIS [RA116], the luminescence value with PCT [1] is 5301; with PCT [3] (setting [5]) it was 362; in the test on PCT [3] (PCT 1.37 pg/ml), 406; in the test on PCT [3] (PCT 4.12 pg/ml), 473; in the test on PCT [3] (PCT 12.35 pg/ml), 602; in the test with PCT [3] (PCT 37.04 pg/ml), 1212. Also, the luminescence value in the test with PCT [3] (PCT 111.1 pg/ml) is listed as 2700; in the test on PCT [3] (PCT 333.3 pg/ml), 7341; with PCT [3] (setting [6]), 20492; with PCT [4] (PCT 0, background, normalized), 5000; in the test on PCT [4] (setting [7]), 11673; in the test with PCT [4] (setting [8]), 69976. The luminescence value is listed as 515360 in the test on PCT [4] (setting [9]) and 1784513 with PCT [4] (setting [10]). The Signal-to-noise ratio with PCT [2] came out at 45.5. The “PCT+” value in the test with PCT [2] came out at 55957. For the same sequence, in the test on PCT [2], the PCT- came out at 1204. The “Signal-to-noise ratio at 1000 pg/ml” value in the test with PCT [3] came to 56.6; with PCT [4], 14.0. In addition, the “signal-to-noise ratios in luciferase dual-antibody complementary activation for PCT detection” value (from here on “signal-to-noise ratios”) in the test on PCT [4] was “higher signal-to-noise ratios”.
As for VEGYRLFEKVW [RB085], the luminescence value came to 5486 in the test with PCT [1]; 337 with PCT [3] (setting [5]); 384 in the test with PCT [3] (PCT 1.37 pg/ml); 445 with PCT [3] (PCT 4.12 pg/ml); 556 with PCT [3] (PCT 12.35 pg/ml); 932 with PCT [3] (PCT 37.04 pg/ml). Moreover, the luminescence value was determined as 2102 in the test with PCT [3] (PCT 111.1 pg/ml); 5551 in the test with PCT [3] (PCT 333.3 pg/ml); 15446 with PCT [3] (setting [6]); 5000 in the test on PCT [4] (PCT 0, background, normalized); 11950 in the test with PCT [4] (setting [7]); 69595 with PCT [4] (setting [8]). Besides, the luminescence value in the test on PCT [4] (setting [9]) was found to be 554514; in the test with PCT [4] (setting [10]), 1830312. For the same sequence, the Signal-to-noise ratio in the test on PCT [2] amounted to 38.2. Also, the “PCT+” value with PCT [2] stood at 47227. This sequence also showed a PCT- with PCT [2] of 1206. In addition, the “Signal-to-noise ratio at 1000 pg/ml” value is recorded as 45.8 with PCT [3] and 13.9 with PCT [4]. The “signal-to-noise ratios” value in the test with PCT [4] is recorded as “higher signal-to-noise ratios”.
Consider VEGYRLFDKKW [RB239], for which the luminescence value in the test on PCT [1] was 5622; with PCT [3] (setting [5]), 288; with PCT [3] (PCT 1.37 pg/ml) it was 301; with PCT [3] (PCT 4.12 pg/ml), 332; in the test with PCT [3] (PCT 12.35 pg/ml), 407; in the test on PCT [3] (PCT 37.04 pg/ml), 590. Besides, the luminescence value was 1318 in the test on PCT [3] (PCT 111.1 pg/ml); 3364 in the test with PCT [3] (PCT 333.3 pg/ml); 8952 in the test on PCT [3] (setting [6]); 5000 with PCT [4] (PCT 0, background, normalized); 11004 with PCT [4] (setting [7]); 57648 in the test on PCT [4] (setting [8]). Moreover, the luminescence value in the test on PCT [4] (setting [9]) is given as 466004; in the test with PCT [4] (setting [10]) it was 2167580. Further, the Signal-to-noise ratio in the test on PCT [2] was 67.7. Besides, in the test with PCT [2], the “PCT+” value is given as 31936. Besides, in the test with PCT [2], the PCT- turned out to be 465. In addition, the “Signal-to-noise ratio at 1000 pg/ml” value was determined as 31.1 with PCT [3] and 11.5 with PCT [4]. The “signal-to-noise ratios” value with PCT [4] was “higher signal-to-noise ratios”.
